In the supplement of paper PMC11061612:

Tests used:
[1] = tested on: HeLa (Cervical Carcinoma); assay: Bliss excess, mean over the matrix (fraction); higher = more synergy
How it was run: (§1)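 After 24 hours at 37°C and 5% CO2 in 1536-well plates, cells in DMEM/F12 or RPMI plus 10% FBS received two-drug dose matrices for 72 hours. Viability came from CellTiter-Glo 2.0 luminescence and was scaled as inhibition, anchored at 0 by vehicle wells and at 1 by blank wells. Combination Emax is taken as the second-highest inhibition in the matrix, and Bliss excess as the observed combination effect less EA + EB − EA·EB, with EA and EB the single-agent effects.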

BPH-1 (Non-Cancerous) = assay: as above
How it was run: as §1

[2] = tested on: BFTC-909 (Kidney Carcinoma); assay: as above
How it was run: as §1

[3] = tested on: SAS (Oral Cavity Carcinoma); assay: as above
How it was run: as §1

[4] = tested on: TGBC1TKB (Biliary Tract Carcinoma); assay: as above
How it was run: as §1

[5] = tested on: HuCCT1 (Biliary Tract Carcinoma); assay: as above
How it was run: as §1

[6] = tested on: KMRC-20 (Kidney Carcinoma); assay: as above
How it was run: as §1

[7] = tested on: NCI-H524 (Small Cell Lung Carcinoma); assay: as above
How it was run: as §1

[8] = tested on: Detroit562 (Head and Neck Carcinoma); assay: as above
How it was run: as §1

[9] = tested on: HuH-7 (Hepatocellular Carcinoma); assay: as above
How it was run: as §1

[10] = tested on: ESS-1 (Other Solid Carcinomas); assay: as above
How it was run: as §1

[11] = tested on: L-428 (Hodgkin's Lymphoma); assay: as above
How it was run: as §1

BE2-M17 (Neuroblastoma) = assay: as above
How it was run: as §1

[12] = tested on: SNU-16 (Gastric Carcinoma); assay: as above
How it was run: as §1

MPP-89 (Mesothelioma) = assay: as above
How it was run: as §1

KS-1 (Glioblastoma) = assay: combination Emax (second highest fraction inhibited in the dose matrix, 72 h); higher = more inhibition; extreme values may be limits of the assay
How it was run: as §1

[13] = tested on: TGBC1TKB (Biliary Tract Carcinoma); assay: as above
How it was run: as §1

[14] = tested on: OE21 (Esophageal Squamous Cell Carcinoma); assay: as above
How it was run: as §1

[15] = tested on: BE-13 (T-Lymphoblastic Leukemia); assay: as above
How it was run: as §1

[16] = tested on: CAL-33 (Oral Cavity Carcinoma); assay: as above
How it was run: as §1
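For Bliss excess, mean over the matrix in this document: after 72 h of two-drug dosing.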

| Structure (SMILES) | Bliss excess [1] | Bliss excess (BPH-1 (Non-Cancerous)) | Bliss excess [2] | Bliss excess [3] | Bliss excess [4] | Bliss excess [5] | Bliss excess [6] | Bliss excess [7] | Bliss excess [8] | Bliss excess [9] | Bliss excess [10] | Bliss excess [11] | Bliss excess (BE2-M17 (Neuroblastoma)) | Bliss excess [12] | Bliss excess (MPP-89 (Mesothelioma)) | combination Emax (KS-1 (Glioblastoma)) | combination Emax [13] | combination Emax [14] | combination Emax [15] | combination Emax [16] |
| --- | --- | --- | --- | --- | --- | --- | --- | --- | --- | --- | --- | --- | --- | --- | --- | --- | --- | --- | --- | --- |
| Cc1c2c(nn1C)CSCc1cc(n(C)n1)CSc1cc(c3ccccc3c1)OCCCc1c(C(=O)O)n(C)c3c-2c(Cl)ccc13 [AZD5991] + C[C@@H](Nc1cc(F)cc(F)c1)c1cc(C(=O)N(C)C)cc2c(=O)cc(N3CCOCC3)oc12 [AZD8186] (first compound max 1 µM, 7x7, partner max 3 µM) | 0.0387 | 0.0078 | 0.0188 | 0.0062 | -0.0236 | 0.021 | 0.0456 | -0.0289 | 0.0065 | -0.007 | -0.045 | -0.0085 | -0.0355 | 0.0087 | 0.0083 | 0.416 | 0.377 | 0.397 | 0.384 | 0.28 |
| Cc1c2c(nn1C)CSCc1cc(n(C)n1)CSc1cc(c3ccccc3c1)OCCCc1c(C(=O)O)n(C)c3c-2c(Cl)ccc13 [AZD5991] + Cc1cc2ncnn2cc1Nc1ncc2c(n1)n(C1CCOCC1)c(=O)n2C [AZD7648] (first compound max 1 µM, 7x7, partner max 10 µM) | 0.0021 | -0.0632 | 0.0101 | -0.0078 | -0.0115 | -0.032 | -0.0036 | -0.016 | -0.0172 | -0.0408 | -0.0292 | 0.0455 | -0.0159 | 0.0284 | 0.0158 | 0.253 | 0.319 | 0.385 | 0.406 | 0.302 |
| Cc1c2c(nn1C)CSCc1cc(n(C)n1)CSc1cc(c3ccccc3c1)OCCCc1c(C(=O)O)n(C)c3c-2c(Cl)ccc13 [AZD5991] + Cn1cnc2c(F)c(Nc3ccc(Br)cc3Cl)c(C(=O)NOCCO)cc21 [Selumetinib] (first compound max 1 µM, 7x7, partner max 3 µM) | -0.004 | 0.0216 | 0.0607 | 0.0248 | -0.0181 | 0.0339 | 0.0054 | -0.0129 | 0.0295 | -0.0361 | 0.0083 | 0.0018 | 0.0436 | 0.0143 | -0.0188 | 0.31 | 0.187 | 0.469 | 0.449 | 0.411 |
| C[C@@H]1COCCN1c1cc(C2([S@](C)(=N)=O)CC2)nc(-c2ccnc3[nH]ccc23)n1 [AZD6738] + O=C(c1cc(Cc2n[nH]c(=O)c3ccccc23)ccc1F)N1CCN(C(=O)C2CC2)CC1 [Olaparib] (first compound max 10 µM, 7x7, partner max 10 µM) | 0.0497 | 0.0283 | 0.0337 | -0.0361 | -0.0578 | -0.0264 | -0.0101 | 0.0196 | 0.0381 | 0.0569 | 0.0107 | 0.0227 | -0.0176 | -0.0054 | 0.0055 | 0.573 | 0.397 | 0.661 | 0.702 | 0.763 |
| NC1(C(=O)N[C@@H](CCO)c2ccc(Cl)cc2)CCN(c2ncnc3[nH]ccc23)CC1 [Capivasertib] + CC(=O)c1c(C)c2cnc(Nc3ccc(N4CCNCC4)cn3)nc2n(C2CCCC2)c1=O [Palbociclib] (first compound max 10 µM, 7x7, partner max 10 µM) | -0.0661 | -0.0574 | 0.006 | -0.0211 | 0.0157 | -0.0067 | -0.0377 | 0.0047 | 0.0585 | 0.0124 | -0.0479 | -0.0092 | 0.0059 | 0.0129 | -0.0553 | 0.5 | 0.344 | 0.714 | 0.507 | 0.499 |
| NC1(C(=O)N[C@@H](CCO)c2ccc(Cl)cc2)CCN(c2ncnc3[nH]ccc23)CC1 [Capivasertib] + CC(C)n1c(=O)n(C)c2cnc3cc(F)c(-c4ccc(OCCCN5CCCCC5)nc4)cc3c21 [AZD1390] (first compound max 10 µM, 7x7, partner max 0.3 µM) | -0.0537 | -0.0842 | -0.013 | -0.036 | 0.004 | -0.0447 | -0.0651 | -0.0033 | -0.0122 | -0.045 | -0.0078 | -0.0352 | -0.115 | -0.0034 | -0.0069 | 0.323 | 0.358 | 0.621 | 0.296 | 0.478 |
| NC1(C(=O)N[C@@H](CCO)c2ccc(Cl)cc2)CCN(c2ncnc3[nH]ccc23)CC1 [Capivasertib] + CCN(CCO)CCCOc1ccc2c(Nc3cc(CC(=O)Nc4cccc(F)c4)[nH]n3)ncnc2c1 [AZD2811] (first compound max 10 µM, 7x7, partner max 1 µM) | -0.0411 | 0.0118 | 0.0366 | -0.0264 | -0.0275 | 0.0051 | -0.015 | 0.0113 | -0.0114 | -0.0168 | 0.0203 | 0.0098 | -0.043 | 0.0416 | -0.0481 | 0.547 | 0.298 | 0.642 | 0.733 | 0.897 |
| NC1(C(=O)N[C@@H](CCO)c2ccc(Cl)cc2)CCN(c2ncnc3[nH]ccc23)CC1 [Capivasertib] + COc1nnc2ccc(N3CCC(c4ccc(OCCN5CCN(C)C(=O)[C@H]5C)cc4)CC3)nn12 [AZD5153] (first compound max 10 µM, 7x7, partner max 1 µM) | -0.0021 | -0.0542 | 0.0433 | -0.0524 | 0.02 | 0.0113 | 0.0004 | -0.0155 | -0.0212 | -0.0061 | 0.0342 | -0.0239 | 0.0666 | 0.0344 | -0.0632 | 0.755 | 0.39 | 0.882 | 0.644 | 0.749 |
| NC1(C(=O)N[C@@H](CCO)c2ccc(Cl)cc2)CCN(c2ncnc3[nH]ccc23)CC1 [Capivasertib] + C[C@@H]1COCCN1C2=NC(=NC(=C2)C3(CC3)[S@](=N)(=O)C)C4=C5C=CNC5=NC=C4 [AZD6738] (first compound max 10 µM, 7x7, partner max 10 µM) | -0.0926 | -0.0497 | -0.0878 | -0.0308 | -0.005 | -0.0335 | -0.128 | -0.0086 | -0.0137 | -0.0228 | -0.0884 | -0.0004 | -0.0034 | -0.0208 | -0.0166 | 0.653 | 0.559 | 0.858 | 0.731 | 0.918 |
| NC1(C(=O)N[C@@H](CCO)c2ccc(Cl)cc2)CCN(c2ncnc3[nH]ccc23)CC1 [Capivasertib] + Cn1cnc2c(F)c(Nc3ccc(Br)cc3Cl)c(C(=O)NOCCO)cc21 [Selumetinib] (first compound max 10 µM, 7x7, partner max 10 µM) | 0.0032 | -0.0162 | 0.0531 | 0.0089 | 0.0729 | 0.01 | -0.133 | 0.0158 | 0.0993 | -0.0428 | -0.0183 | -0.0127 | 0.0158 | 0.0151 | -0.0188 | 0.551 | 0.475 | 0.924 | 0.276 | 0.789 |
| COc1cccc2c1C(=O)c1c(O)c3c(c(O)c1C2=O)C[C@@](O)(C(=O)CO)C[C@@H]3O[C@H]1C[C@H](N)[C@H](O)[C@H](C)O1 [Doxorubicin] + Cc1cc2ncnn2cc1Nc1ncc2c(n1)n(C1CCOCC1)c(=O)n2C [AZD7648] (first compound max 1 µM, 7x7, partner max 10 µM) | 0.0511 | 0.0736 | 0.0402 | 0.0996 | -0.0247 | -0.0073 | 0.046 | 0.145 | 0.103 | -0.0513 | 0.0112 | 0.0276 | 0.0514 | 0.0506 | 0.0691 | 0.619 | 0.366 | 0.593 | 0.965 | 0.873 |
| CS(=O)(=O)CCNCc1ccc(-c2ccc3ncnc(Nc4ccc(OCc5cccc(F)c5)c(Cl)c4)c3c2)o1 [Lapatinib] + C[C@@H](Oc1cc(-c2cnn(C3CCNCC3)c2)cnc1N)c1c(Cl)ccc(F)c1Cl [Crizotinib] (first compound max 10 µM, 7x7, partner max 10 µM) | -0.0031 | -0.0078 | -0.0651 | -0.0346 | -0.0061 | -0.068 | -0.116 | -0.037 | 0.0107 | 0.0309 | -0.0637 | -0.0032 | -0.0652 | -0.0151 | -0.0762 | 0.79 | 0.616 | 0.936 | 0.988 | 0.989 |
| CC(=O)c1c(C)c2cnc(Nc3ccc(N4CCNCC4)cn3)nc2n(C2CCCC2)c1=O [Palbociclib] + CC1(C)CCC(CN2CCN(c3ccc(C(=O)NS(=O)(=O)c4ccc(NCC5CCOCC5)c([N+](=O)[O-])c4)c(Oc4cnc5[nH]ccc5c4)c3)CC2)=C(c2ccc(Cl)cc2)C1 [Venetoclax] (first compound max 10 µM, 7x7, partner max 1 µM) | -0.0473 | -0.0556 | 0.0244 | 0.014 | -0.0385 | -0.0611 | -0.03 | -0.0732 | 0.0008 | -0.0402 | -0.0303 | 0.0037 | 0.0218 | -0.0161 | -0.0484 | 0.348 | 0.033 | 0.229 | 0.588 | 0.113 |
| CC(=O)c1c(C)c2cnc(Nc3ccc(N4CCNCC4)cn3)nc2n(C2CCCC2)c1=O [Palbociclib] + Cc1c2c(nn1C)CSCc1cc(n(C)n1)CSc1cc(c3ccccc3c1)OCCCc1c(C(=O)O)n(C)c3c-2c(Cl)ccc13 [AZD5991] (first compound max 10 µM, 7x7, partner max 1 µM) | -0.0225 | -0.0476 | 0.0029 | -0.0318 | -0.0082 | -0.0461 | -0.0782 | 0.0019 | -0.0131 | -0.011 | -0.0067 | -0.0554 | 0.0096 | -0.0089 | -0.021 | 0.266 | 0.164 | 0.393 | 0.815 | 0.291 |
